Organism: Rattus norvegicus
Experiment: DrugMatrix - Regimen: Daily Repeat
Type: toxicity, organism-based, Sprague-Dawley
Parameters: regimen Daily Repeat, gender Male, age 6-8 weeks
Settings: in vivo, po, route oral GAVAGE, vehicle 100 % WATER; for ABSOLUTE BASOPHIL / ABSOLUTE EOSINOPHIL / ABSOLUTE LYMPHOCYTE / ABSOLUTE MONOCYTE / ABSOLUTE SEGMENTED NEUTROPHIL / BASOPHIL / EOSINOPHIL / ERYTHROCYTE COUNT / HEMATOCRIT / HEMOGLOBIN / LEUKOCYTE COUNT / LYMPHOCYTE / MEAN CORPUSCULAR HEMOGLOBIN / MEAN CORPUSCULAR HEMOGLOBIN CONCENTRATION / NEUTROPHIL / NUCLEATED RED BLOOD CELLS / PLATELET COUNT: tissue Blood; for ALANINE AMINOTRANSFERASE / ALBUMIN / ALKALINE PHOSPHATASE / ASPARTATE AMINOTRANSFERASE / BLOOD UREA NITROGEN / CARBON DIOXIDE / CHLORIDE / CREATINE PHOSPHOKINASE / CREATININE / GLUCOSE / LACTATE DEHYDROGENASE / LIPASE / PHOSPHORUS / POTASSIUM / SODIUM / TOTAL BILIRUBIN / TOTAL PROTEIN / URIC ACID / CHOLESTEROL: tissue Plasma
[1] = 0 mg/kg, 72 h, dose level Control, time 3 day
[2] = 0 mg/kg, 120 h, dose level Control, time 5 day
[3] = 94 mg/kg, 72 h, dose level High, time 3 day

Compound: CN1[C@@H]2CC[C@H]1C[C@@H](OC(=O)C(CO)c1ccccc1)C2 (some centres not stated) [ATROPINE]
- ABSOLUTE BASOPHIL [1]: 0 CELLS/uL
- ABSOLUTE EOSINOPHIL [1]: 33.67 CELLS/uL
- ABSOLUTE LYMPHOCYTE [1]: 11257.17 CELLS/uL
- ABSOLUTE MONOCYTE [1]: 72.17 CELLS/uL
- ABSOLUTE SEGMENTED NEUTROPHIL [1]: 1220.33 CELLS/uL
- BASOPHIL [1]: 0%
- EOSINOPHIL [1]: 0.33%
- ERYTHROCYTE COUNT [1]: 5 x10E6/uL
- HEMATOCRIT [1]: 32.62%
- HEMOGLOBIN [1]: 12.83 G/DL
- LEUKOCYTE COUNT [1]: 12.58 x10E3/uL
- LYMPHOCYTE [1]: 89%
- MEAN CORPUSCULAR HEMOGLOBIN [1]: 25.67 pg
- MEAN CORPUSCULAR HEMOGLOBIN CONCENTRATION [1]: 39.35 G/DL
- NEUTROPHIL [1]: 10%
- NUCLEATED RED BLOOD CELLS [1]: 0 /100WBC
- PLATELET COUNT [1]: 1162.5 x10E3/uL
- ALANINE AMINOTRANSFERASE [1]: 45.33 u/L
- ALBUMIN [1]: 3.95 G/DL
- ALKALINE PHOSPHATASE [1]: 356.17 u/L
- ASPARTATE AMINOTRANSFERASE [1]: 81 u/L
- BLOOD UREA NITROGEN [1]: 11 mg/dL
- CARBON DIOXIDE [1]: 29.83 mmol/L
- CHLORIDE [1]: 97.8 MEQ/L
- CREATINE PHOSPHOKINASE [1]: 211.33 u/L
- CREATININE [1]: 0.11 mg/dL
- GLUCOSE [1]: 164.67 mg/dL
- LACTATE DEHYDROGENASE [1]: 143.17 u/L
- LIPASE [1]: 10.17 u/L
- PHOSPHORUS [1]: 10.88 mg/dL
- POTASSIUM [1]: 6.08 MEQ/L
- SODIUM [1]: 141.54 MEQ/L
- TOTAL BILIRUBIN [1]: 0.23 mg/dL
- TOTAL PROTEIN [1]: 5.65 G/DL
- URIC ACID [1]: 1 mg/dL
- ABSOLUTE BASOPHIL [2]: 0 CELLS/uL
- ABSOLUTE EOSINOPHIL [2]: 48.67 CELLS/uL
- ABSOLUTE LYMPHOCYTE [2]: 9267.83 CELLS/uL
- ABSOLUTE MONOCYTE [2]: 194.33 CELLS/uL
- ABSOLUTE SEGMENTED NEUTROPHIL [2]: 572.5 CELLS/uL
- BASOPHIL [2]: 0%
- EOSINOPHIL [2]: 0.33%
- ERYTHROCYTE COUNT [2]: 5.41 x10E6/uL
- HEMATOCRIT [2]: 36.17%
- HEMOGLOBIN [2]: 13.9 G/DL
- LEUKOCYTE COUNT [2]: 10.08 x10E3/uL
- LYMPHOCYTE [2]: 92.17%
- MEAN CORPUSCULAR HEMOGLOBIN [2]: 25.73 pg
- MEAN CORPUSCULAR HEMOGLOBIN CONCENTRATION [2]: 38.45 G/DL
- NEUTROPHIL [2]: 5.67%
- NUCLEATED RED BLOOD CELLS [2]: 0.33 /100WBC
- PLATELET COUNT [2]: 1122.33 x10E3/uL
- ALANINE AMINOTRANSFERASE [2]: 52.83 u/L
- ALBUMIN [2]: 4.12 G/DL
- ALKALINE PHOSPHATASE [2]: 367.33 u/L
- ASPARTATE AMINOTRANSFERASE [2]: 88 u/L
- BLOOD UREA NITROGEN [2]: 12.67 mg/dL
- CARBON DIOXIDE [2]: 33.67 mmol/L
- CHLORIDE [2]: 97 MEQ/L
- CHOLESTEROL [2]: 67.5 mg/dL
- CREATINE PHOSPHOKINASE [2]: 358.67 u/L
- CREATININE [2]: 0.14 mg/dL
- GLUCOSE [2]: 152.33 mg/dL
- LACTATE DEHYDROGENASE [2]: 180 u/L
- LIPASE [2]: 10.5 u/L
- PHOSPHORUS [2]: 10.63 mg/dL
- POTASSIUM [2]: 5.99 MEQ/L
- SODIUM [2]: 141.85 MEQ/L
- TOTAL BILIRUBIN [2]: 0.2 mg/dL
- TOTAL PROTEIN [2]: 6.18 G/DL
- URIC ACID [2]: 0.52 mg/dL
- ABSOLUTE BASOPHIL [3]: 0 CELLS/uL
- ABSOLUTE EOSINOPHIL [3]: 0 CELLS/uL
- ABSOLUTE LYMPHOCYTE [3]: 12944 CELLS/uL
- ABSOLUTE MONOCYTE [3]: 33.33 CELLS/uL
- ABSOLUTE SEGMENTED NEUTROPHIL [3]: 789.33 CELLS/uL
- BASOPHIL [3]: 0%
- EOSINOPHIL [3]: 0%
- ERYTHROCYTE COUNT [3]: 5.37 x10E6/uL
- HEMATOCRIT [3]: 33.77%
- HEMOGLOBIN [3]: 13.4 G/DL
- LEUKOCYTE COUNT [3]: 13.77 x10E3/uL
- LYMPHOCYTE [3]: 93.67%
- MEAN CORPUSCULAR HEMOGLOBIN [3]: 24.93 pg
- MEAN CORPUSCULAR HEMOGLOBIN CONCENTRATION [3]: 39.67 G/DL
- NEUTROPHIL [3]: 6%
- NUCLEATED RED BLOOD CELLS [3]: 0 /100WBC
- PLATELET COUNT [3]: 1031.67 x10E3/uL
- ALANINE AMINOTRANSFERASE [3]: 59.33 u/L
- ALBUMIN [3]: 4.03 G/DL
- ALKALINE PHOSPHATASE [3]: 322.67 u/L
- ASPARTATE AMINOTRANSFERASE [3]: 115 u/L
- BLOOD UREA NITROGEN [3]: 11 mg/dL
- CARBON DIOXIDE [3]: 26.33 mmol/L
- CHLORIDE [3]: 102.5 MEQ/L
- CHOLESTEROL [3]: 72.67 mg/dL
- CREATINE PHOSPHOKINASE [3]: 681.33 u/L
- CREATININE [3]: 0.13 mg/dL
- GLUCOSE [3]: 149.67 mg/dL
- LACTATE DEHYDROGENASE [3]: 237 u/L
- LIPASE [3]: 10.67 u/L
- PHOSPHORUS [3]: 9.43 mg/dL
- POTASSIUM [3]: 5.53 MEQ/L
- SODIUM [3]: 142.3 MEQ/L
- TOTAL BILIRUBIN [3]: 0.3 mg/dL
- TOTAL PROTEIN [3]: 5.6 G/DL
- URIC ACID [3]: 1 mg/dL

— ChEMBL document CHEMBL3885881, “DrugMatrix”
